Measured values reported in patent US6723699B1, “Treating disorders by application of insulin-like growth factors and analogs” (Cephalon, Inc., priority 1989, dated 2004).
Where no end group is shown, it is not given here. [ ]: non-standard residue; d: D form. Tyr(3,5-I2) = N[C@@H](Cc1cc(I)c(O)c(I)c1)C(=O)O

How the values were obtained:
[1] = tested on: E18 cortical neuronal cultures; assay: Cortical neuronal cell survival, calcein-AM fluorometric viability assay; type: cell-based, rat; conditions: for total number of cells surviving relative to control (in words): 100 μM peptide, 4 days, insulin/serum-free media
Method: To determine whether carboxy-terminal linear peptide derivatives of IGFs can promote the survival of cortical neuronal cells, dissociated cultures of embryonic rat cortex were prepared and assayed for the total number of viable cells present after incubation in the presence or absence of peptide. Cortices were dissected from E18 embryonic rats, dissociated by enzymatic digestion or mechanical dissociation and seeded at a density of 6.25×10^4 cells/cm^2 in defined insulin/serum-free media (Bottenstein and Sato, PNAS, 76:514-517, (1979)) in the presence or absence of 100 μM peptide. […] This compound is taken up by all cells but can only be converted to a fluorescent derivative by live cells. The relative fluorescence values obtained reflect the total viable cell number. […] NO: 5) (Example 22), and the amino acid sequence […] To determine the potency of the carboxy terminal peptides we analyzed the ability of peptides to promote cell survival. We measured the total number of surviving cells within cortical neuronal cultures relative to basal control cultures. FIG. 16 illustrates the concentration-response relationship for peptide […] All peptides examined are effective within the micromolar concentration range in the fluorometric viability assay.

[2] = tested on: E18 rat cortices cultures; assay: Cortical neurite outgrowth / regeneration; type: cell-based; conditions: 100 μM peptide, 96 hours
Method: To determine whether carboxy-terminal linear peptides of IGFs could promote cortical neurite regeneration, dissociated preparations of E18 rat cortices were cultured in defined insulin/serum-free media in the presence or absence of 100 μM peptides: IGF-II(54-67) (SEQ ID NO:3), IGF-I(55-70) (SEQ ID NO:4), peptide TYCAPAKSE (SEQ ID NO:1), peptide EPYCAPPAKSE (SEQ ID NO:5), IGF-II(54-67; D-Y) (SEQ ID NO:45) and IGF-II(58-67) (SEQ ID NO:2). The cultures were observed 96 hours after peptide exposure and photomicrographs were taken.

[3] = molecular target: T1, IGF-I receptor (Rattus norvegicus, UniProt P24062); assay: 125I-[Threonine59]IGF-I displacement (IGF-I receptor competition) assay, rat brain homogenate; type: binding; conditions: for PERCENT MAX. BOUND: peptide 100 μM
T1 construct: Brain tissue containing the cerebral cortex and cerebellum was dissected from adult Sprague-Dawley rats; from tissue; host or cells: adult Sprague-Dawley rat brain (cerebral cortex and cerebellum), homogenate pellet
T1 sequence (P24062 31-737 limits assumed): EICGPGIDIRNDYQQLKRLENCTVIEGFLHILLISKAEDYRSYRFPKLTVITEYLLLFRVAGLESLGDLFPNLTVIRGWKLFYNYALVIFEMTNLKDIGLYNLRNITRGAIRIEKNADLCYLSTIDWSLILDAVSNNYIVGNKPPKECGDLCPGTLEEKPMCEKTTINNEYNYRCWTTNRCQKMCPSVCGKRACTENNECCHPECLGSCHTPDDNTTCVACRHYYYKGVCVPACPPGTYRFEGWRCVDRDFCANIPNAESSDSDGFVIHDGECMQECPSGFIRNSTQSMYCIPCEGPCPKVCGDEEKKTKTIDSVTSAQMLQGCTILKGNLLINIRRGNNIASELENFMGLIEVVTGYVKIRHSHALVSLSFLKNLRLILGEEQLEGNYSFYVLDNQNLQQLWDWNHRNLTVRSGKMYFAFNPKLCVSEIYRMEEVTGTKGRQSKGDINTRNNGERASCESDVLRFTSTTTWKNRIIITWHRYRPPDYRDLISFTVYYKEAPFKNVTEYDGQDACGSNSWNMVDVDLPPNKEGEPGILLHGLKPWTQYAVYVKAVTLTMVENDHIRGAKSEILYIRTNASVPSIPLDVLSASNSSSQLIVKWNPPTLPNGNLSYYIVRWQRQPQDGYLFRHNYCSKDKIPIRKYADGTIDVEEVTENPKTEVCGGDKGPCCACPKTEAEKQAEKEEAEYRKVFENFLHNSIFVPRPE
T1 sequence (P24062 742-1370 partner limits assumed): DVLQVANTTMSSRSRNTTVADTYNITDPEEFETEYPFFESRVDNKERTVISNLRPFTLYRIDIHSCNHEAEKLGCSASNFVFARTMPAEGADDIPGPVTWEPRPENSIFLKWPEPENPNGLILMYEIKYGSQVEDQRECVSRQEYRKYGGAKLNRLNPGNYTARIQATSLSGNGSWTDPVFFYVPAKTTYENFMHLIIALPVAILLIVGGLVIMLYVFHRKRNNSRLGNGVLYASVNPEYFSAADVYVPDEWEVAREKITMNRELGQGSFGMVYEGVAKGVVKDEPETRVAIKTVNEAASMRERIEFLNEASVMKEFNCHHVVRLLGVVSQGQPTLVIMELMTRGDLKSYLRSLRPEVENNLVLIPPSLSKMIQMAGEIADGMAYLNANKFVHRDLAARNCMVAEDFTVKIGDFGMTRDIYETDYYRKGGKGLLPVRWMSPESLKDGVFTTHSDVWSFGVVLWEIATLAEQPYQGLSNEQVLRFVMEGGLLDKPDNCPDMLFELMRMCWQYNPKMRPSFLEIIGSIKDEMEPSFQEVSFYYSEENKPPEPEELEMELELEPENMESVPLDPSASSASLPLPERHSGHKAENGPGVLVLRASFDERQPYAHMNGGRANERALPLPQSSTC
Method: Brain tissue containing the cerebral cortex and cerebellum was dissected from adult Sprague-Dawley rats (Hilltop Lab Animals, Inc. Scottsdale, Pa.) and homogenized at low power for 5 minutes in a Brinkmann Polytron homogenizer (Westbury, N.Y.) containing 50 volumes of ice-cold buffer consisting of 10 mM HEPES, 0.5% BSA, 0.0125% NEM, 0.025% bacitracin, and 100 KIU/ml aprotinin, pH 7.6 (Bohannon et al., Endocrinology 119:943-945 (1986). Following homogenization, the tissue was collected after centrifugation at 7800×g for 20 minutes and resuspended in 10 volumes of assay buffer. Tissue (50 μl), 100 μl ^125I-[Threonine^59]IGF-I (20 pM), and 50 μl of buffer or peptides of varying concentration were added to 96-well plates and incubated on ice for 3 hours. After the incubation period, the tissue was collected on Whatman GF/C filters that had been pre-soaked in 0.01% polyethylenimine and washed four times with ice-cold assay buffer using a Brandel cell harvester (Gaithersburg, Md.). The filters were removed and the bound ^125I-[Threonine 59]IGF-I was measured using a Beckman Model 5500B Gamma Counter.

[4] = tested on: 125I-[Threonine59]IGF-I binding to brain tissue sections; assay: 125I-[Threonine59]IGF-I binding displacement on rat brain tissue sections
Method: Brains were removed intact from adult Sprague-Dawley rats, frozen on powdered dry ice, and cut into 20 μm sections (at the level of the cerebellum and brain stem) which were
thaw-mounted onto gelatin-coated glass microscope slides (Herkenham and Pert, J. Neurosci. 2:1129-1149 (1982)). Using a modification of the method of Bohannon et al. (1986), the tissue sections were covered with 250 μl of HEPES assay buffer (see Example 1) containing 0.01 nM ^125I-[Threonine^59]IGF-I alone or in combination with unlabeled IGF-I, IGF-II, or synthetic peptide fragments thereof. The sections were incubated at 4° C. for 24 hours and then rinsed in three 1-minute changes (200 ml each) of ice-cold HEPES assay buffer. The tissue sections were then wiped off the slides with filter paper, and the tissue-bound radioactivity was measured in a Beckman Model 5500B Gamma Counter.

[5] = tested on: brain ornithine decarboxylase; assay: Induction of brain ornithine decarboxylase after intracerebral injection, 4 day old rats; type: in vivo, rat; conditions: 6 hours
Method: The in vivo activity of IGF-I, IGF-II or synthetic peptide derivatives of these molecules was tested using a biochemical marker for CNS neurotrophic activity, the induction of brain ornithine decarboxylase. The induction (i.e. increased activity) of ornithine decarboxylase has been reported to be a general marker for the actions of a variety of trophic factors. (Schwartz et al., Dev. Brain Res. 1:403-413 (1981); Kanje et al., Brain Res. 381:24-28 (1986); Russell et al., Life Sci. 19:1297-1306 (1976); MacDonnell et al. Proc. Natl. Acad. Sci. USA 74, 4681-4684 (1977); […] et al. Proc. Natl. Acad. Sci. USA 82, 4365-4368 (1985)). Sprague-Dawley rats, 4 days old, were injected intracerebrally (in the area of the lateral ventricle) with 5 μl of 0.1 M phosphate-buffered saline (PBS) containing IGF-I, IGF-II or a synthetic peptide derivative (1.25-2.5 μg dose, with 6 animals per treatment group). After 6 hours, the brains were removed, and ornithine decarboxylase was assayed essentially as described by Lewis et al., Proc. Natl. Acad. Sci. USA 75:1021-1023 (1978).

[6] = tested on: cultured rat cortical cells; assay: [3H]-leucine incorporation in cultured rat cortical cells; type: cell-based; conditions: low density 24 hour mixed cortical cultures
Method: (§1) The ability of IGF-I and a synthetic derivative of IGF-II (IGF-II(54-67)) to increase the incorporation of [^3H]-leucine and to promote the survival of neurite bearing cells was examined in cultured rat cortical cells (the numbers “54-67” in IGF-II indicate the fragment includes amino acid residues 54-67 of native IGF-II).
(§2) Measurements were performed, using standard techniques known to those skilled in the art, on dissociated cortical cells obtained from day 18-19 embryonic rats. Cells were seeded at 1.5×10^4/cm^2 on poly-1-ornithine-laminin coated plastic tissue culture cells in serum-free N2 medium (Bottenstein et al. Proc. Natl. Acad. Sci. U.S.A. 76: 514-517 (1978)). [^3H]-leucine was added to cells at plating for the incorporation assay. Cultures were terminated 24 hours after plating and measured for either [^3H]-leucine incorporation or for the number of neuritic cells by microscopic examination.

[7] = tested on: cortical neurons; assay: Survival of neurite bearing cells in cultured rat cortical cells; type: cell-based; conditions: 24 hours after plating
Method: as §1, §2

[8] = type: in vitro ADME
Method: The peptides of Examples 22 and 23 are modified peptides containing the D isomer of tyrosine (D-Y) at position 59 within IGF-II amino acids 54-67 or 58-67. These modifications were made to prevent peptide bond degradation due to enzymatic cleavage amino terminal to position 60 of IGF-II(54-67) and (58-67). Using a non-denaturing HPLC size exclusion chromatography technique the integrity of peptides IGF-II(54-67) and IGF-II(58-67) was analyzed before and after incubation with cells.

Row | Substance | total number of cells surviving relative to control (in words) [1] | other results
1 | TYCAT PAK (TYCATPAK) [IGF-II (58-65)] | increased the total number of cells surviving | 
2 | TYCAPAKSE | increased the total number of cells surviving | concentration-response of cortical neuronal cell survival (in words) ([1]; relative to basal control cultures): promotes cortical neuronal cell survival in a dose-dependent manner; neurite outgrowth / regeneration (in words) [2]: neurite regenerative responses were observed
3 | TYCATPAKSE [IGF-II(58-67)] | increased the total number of cells surviving | neurite outgrowth / regeneration (in words) [2]: neurite regenerative responses were observed
4 | ALLET YCATP AKSE (ALLETYCATPAKSE) [IGF-II(54-67)] | increased the total number of cells surviving | PERCENT MAX. BOUND [3]: 94%; displacement of 125I-[Threonine59]IGF-I (in words) ([3]; rat brain homogenate): not significantly effective displacers; PERCENT MAX. BOUND ([4]; peptide .025 mM): 132%; PERCENT MAX. BOUND ([4]; peptide .25 mM): 167%; brain ornithine decarboxylase activity (in words) [5]: increased brain ornithine decarboxylase activity; [3H]-leucine incorporation (in words) [6]: increased [^3H]-leucine incorporation; survival of cortical neurons (neurite bearing cells) (in words) [7]: increased the survival of cortical neurons; neurite outgrowth / regeneration (in words) [2]: neurite regenerative responses were observed
5 | TDYCAPAKSE (T[dY]CAPAKSE) | increased the total number of cells surviving | 
6 | CAPAKSE [CAPAK SE] | increased the total number of cells surviving | 
7 | EALLETYCATPAKSE [EALLE TYCAT PAKSE] | increased the total number of cells surviving | 
8 | APLKP AKSA (APLKPAKSA) [IGF-I(62-70)] |  | PERCENT MAX. BOUND [3]: 83%
9 | LETYC ATP (LETYCATP) [IGF-II (56-63)] | increased the total number of cells surviving | 
10 | EPYCAPPAKSE | increased the total number of cells surviving | neurite outgrowth / regeneration (in words) [2]: neurite regenerative responses were observed
11 | TPAKS E (TPAKSE) [IGF-II(62-67)] |  | PERCENT MAX. BOUND [3]: 83%
12 | YCAPAKSE [YCAPA KSE] | increased the total number of cells surviving | 
13 | TYCAP A (TYCAPA) | increased the total number of cells surviving | 
14 | RRLEMYCAPLKPAKSA [IGF-I(55-70)] | increased the total number of cells surviving | neurite outgrowth / regeneration (in words) [2]: neurite regenerative responses were observed
15 | YCAPA | increased the total number of cells surviving | 
16 | TY(I2)CAP AKSE (T[Tyr(3,5-I2)]CAPAKSE) [iodinated-TYCAPAKSE] | increased the total number of cells surviving | 
17 | APSTCEYKA [APSTC EYKA] | increased the total number of cells surviving | 
18 | ALLETDYCATPAKSE (ALLET[dY]CATPAKSE) [IGF-II(54-67; D-Y)] | increased the total number of cells surviving | stability against degradation when incubated with cells (in words) [8]: stabilized against degradation when incubated with cells; neurite outgrowth / regeneration (in words) [2]: neurite regenerative responses were observed
19 | GYGSS SRRAP QT (GYGSSSRRAPQT) [IGF-I(30-41)] |  | PERCENT MAX. BOUND [3]: 94%
20 | ALLEKYCAKPAKSE [ALLEK YCAKP AKSE] | increased the total number of cells surviving | 
21 | CATPA KSE (CATPAKSE) [IGF-II (60-67)] | increased the total number of cells surviving | 
22 | TDYCATPAKSE (T[dY]CATPAKSE) [IGF-II(58-67; D-Y)] | increased the total number of cells surviving | 
